Values of other authors as cited in publication PMC10366102, “Dose escalation and expansion cohorts in patients with advanced breast cancer in a Phase I study of the CDK7-inhibitor samuraciclib” (Nature Communications, 2023).

Legend:
[1] = tested on: PIK3CA-mutated HR+ advanced breast cancer; set-up: method as in PMID 33794206; details: PIK3CA mutation, post CDK4/6 inhibitor; cited from earlier work
[2] = tested on: HR+ metastatic breast cancer; set-up: method as in PMID 33230905; details: after CDK4/6 inhibitor; cited from earlier work

For `Cc1nc(NC(=O)N2CCC[C@H]2C(N)=O)sc1-c1ccnc(C(C)(C)C(F)(F)F)c1` [Alpelisib], the “Median PFS” value [1] is listed as 7.3 months.

For `CO[C@H]1C[C@@H]2CC[C@@H](C)[C@@](O)(O2)C(=O)C(=O)N2CCCC[C@H]2C(=O)O[C@H]([C@H](C)C[C@@H]2CC[C@@H](OCCO)[C@H](OC)C2)CC(=O)[C@H](C)/C=C(\C)[C@@H](O)[C@@H](OC)C(=O)[C@H](C)C[C@H](C)/C=C/C=C/C=C/1C` [everolimus], the “Median duration of treatment” value [2] is given as 3.6 months.
